# Measurements reported in ChEMBL document CHEMBL1144430, “Convergent synthesis and pharmacology of substituted tetrazolyl-2-amino-3-(3-hydroxy-5-methyl-4-isoxazolyl)propionic acid analogues” (J Med Chem, 2005).
# pEC50, pIC50, pKi: −log10 of the molar value.
# Experiments:
# [1] = molecular target: Glutamate receptor ionotropic, kainate 2 (Homo sapiens, UniProt Q13002); experiment: Binding affinity for kainate Glutamate receptor GluR6 expressed in Sf9 cells
# [2] = molecular target: Glutamate NMDA receptor; experiment: Displacement of [3H]-CGP- 39653 from N-methyl-D-aspartate glutamate receptor of rat brain synaptosomes; assay type: subcellular
# [3] = molecular target: Glutamate receptor ionotropic, kainate 1 (Homo sapiens, UniProt P39086); experiment: Binding affinity for kainate Glutamate receptor GluR5 expressed in Sf9 cells
# [4] = molecular target: Glutamate receptor ionotropic, AMPA (Rattus norvegicus, UniProt P19490+P19491+P19492+P19493); experiment: Displacement of [3H]AMPA from Ionotropic glutamate receptor of in rat brain synaptosomes; assay type: subcellular
# [5] = In vitro activity at Ionotropic glutamate receptor using cortical wedge assays
# [6] = molecular target: Glutamate receptor ionotropic, kainate; experiment: Displacement of [3H]KA from glutamate receptor of rat brain synaptosomes; assay type: subcellular
# [7] = molecular target: Glutamate receptor 4 (Homo sapiens, UniProt P48058); experiment: Binding affinity for ionotropic Glutamate receptor AMPA 4 expressed in Sf9 cells
# [8] = molecular target: Glutamate receptor 3 (Homo sapiens, UniProt P42263); experiment: Binding affinity for ionotropic Glutamate receptor AMPA 3 expressed in Sf9 cells
# [9] = molecular target: Glutamate receptor 1 (Homo sapiens, UniProt P42261); experiment: Binding affinity for ionotropic Glutamate receptor AMPA 1 expressed in Sf9 cells
# [10] = molecular target: Glutamate receptor 2 (Homo sapiens, UniProt P42262); experiment: Binding affinity for ionotropic Glutamate receptor AMPA 2 expressed in Sf9 cells
# Chain of Glutamate receptor ionotropic, kainate 2 (Q13002 whole entry): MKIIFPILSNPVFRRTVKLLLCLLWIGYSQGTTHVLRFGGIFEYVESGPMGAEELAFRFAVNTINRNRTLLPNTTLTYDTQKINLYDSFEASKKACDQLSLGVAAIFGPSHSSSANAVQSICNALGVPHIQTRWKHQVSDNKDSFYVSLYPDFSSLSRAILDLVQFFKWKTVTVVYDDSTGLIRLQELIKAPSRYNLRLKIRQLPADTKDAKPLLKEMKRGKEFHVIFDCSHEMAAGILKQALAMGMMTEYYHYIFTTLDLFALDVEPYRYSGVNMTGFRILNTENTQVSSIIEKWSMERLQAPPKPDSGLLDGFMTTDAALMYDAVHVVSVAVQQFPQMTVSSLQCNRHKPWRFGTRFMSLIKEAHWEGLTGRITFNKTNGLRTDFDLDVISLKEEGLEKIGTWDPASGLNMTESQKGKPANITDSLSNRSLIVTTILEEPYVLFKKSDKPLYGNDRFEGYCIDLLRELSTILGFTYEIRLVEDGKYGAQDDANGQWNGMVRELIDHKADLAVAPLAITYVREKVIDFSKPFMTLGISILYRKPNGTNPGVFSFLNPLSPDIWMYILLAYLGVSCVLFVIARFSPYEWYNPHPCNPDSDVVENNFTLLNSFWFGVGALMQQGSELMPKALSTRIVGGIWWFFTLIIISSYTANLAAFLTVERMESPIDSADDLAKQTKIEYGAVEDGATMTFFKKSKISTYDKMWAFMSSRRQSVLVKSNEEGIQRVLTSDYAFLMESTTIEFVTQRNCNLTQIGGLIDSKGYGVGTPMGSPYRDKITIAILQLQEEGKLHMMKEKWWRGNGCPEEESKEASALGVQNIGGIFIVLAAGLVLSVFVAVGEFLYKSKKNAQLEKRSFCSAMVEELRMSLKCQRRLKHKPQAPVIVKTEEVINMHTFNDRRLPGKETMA
# Chain of Glutamate receptor 3 (P42263 whole entry): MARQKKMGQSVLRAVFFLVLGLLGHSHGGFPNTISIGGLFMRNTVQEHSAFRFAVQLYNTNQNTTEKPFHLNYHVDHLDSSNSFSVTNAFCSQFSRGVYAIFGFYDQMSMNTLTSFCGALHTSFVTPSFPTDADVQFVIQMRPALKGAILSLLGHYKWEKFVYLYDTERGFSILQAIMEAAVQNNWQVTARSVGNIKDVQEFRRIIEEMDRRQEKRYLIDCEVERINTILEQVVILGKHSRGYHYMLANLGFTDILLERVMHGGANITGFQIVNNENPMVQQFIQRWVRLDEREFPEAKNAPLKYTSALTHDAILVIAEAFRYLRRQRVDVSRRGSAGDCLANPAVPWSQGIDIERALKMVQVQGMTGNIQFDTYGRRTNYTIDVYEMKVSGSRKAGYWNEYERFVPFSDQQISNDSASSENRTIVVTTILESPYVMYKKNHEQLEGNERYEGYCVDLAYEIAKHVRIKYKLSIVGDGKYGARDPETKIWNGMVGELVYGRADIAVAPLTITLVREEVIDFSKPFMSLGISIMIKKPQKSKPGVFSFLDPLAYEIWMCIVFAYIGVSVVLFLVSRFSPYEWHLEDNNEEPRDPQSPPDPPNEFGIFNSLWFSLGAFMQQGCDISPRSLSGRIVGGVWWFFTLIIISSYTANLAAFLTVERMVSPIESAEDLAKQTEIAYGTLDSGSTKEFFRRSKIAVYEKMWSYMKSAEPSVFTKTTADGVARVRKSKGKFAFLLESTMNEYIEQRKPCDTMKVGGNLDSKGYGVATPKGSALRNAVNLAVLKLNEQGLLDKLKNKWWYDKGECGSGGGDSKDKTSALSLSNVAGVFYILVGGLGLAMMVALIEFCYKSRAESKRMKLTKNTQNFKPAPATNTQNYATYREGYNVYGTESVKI
# Chain of Glutamate receptor ionotropic, kainate 1 (P39086 whole entry): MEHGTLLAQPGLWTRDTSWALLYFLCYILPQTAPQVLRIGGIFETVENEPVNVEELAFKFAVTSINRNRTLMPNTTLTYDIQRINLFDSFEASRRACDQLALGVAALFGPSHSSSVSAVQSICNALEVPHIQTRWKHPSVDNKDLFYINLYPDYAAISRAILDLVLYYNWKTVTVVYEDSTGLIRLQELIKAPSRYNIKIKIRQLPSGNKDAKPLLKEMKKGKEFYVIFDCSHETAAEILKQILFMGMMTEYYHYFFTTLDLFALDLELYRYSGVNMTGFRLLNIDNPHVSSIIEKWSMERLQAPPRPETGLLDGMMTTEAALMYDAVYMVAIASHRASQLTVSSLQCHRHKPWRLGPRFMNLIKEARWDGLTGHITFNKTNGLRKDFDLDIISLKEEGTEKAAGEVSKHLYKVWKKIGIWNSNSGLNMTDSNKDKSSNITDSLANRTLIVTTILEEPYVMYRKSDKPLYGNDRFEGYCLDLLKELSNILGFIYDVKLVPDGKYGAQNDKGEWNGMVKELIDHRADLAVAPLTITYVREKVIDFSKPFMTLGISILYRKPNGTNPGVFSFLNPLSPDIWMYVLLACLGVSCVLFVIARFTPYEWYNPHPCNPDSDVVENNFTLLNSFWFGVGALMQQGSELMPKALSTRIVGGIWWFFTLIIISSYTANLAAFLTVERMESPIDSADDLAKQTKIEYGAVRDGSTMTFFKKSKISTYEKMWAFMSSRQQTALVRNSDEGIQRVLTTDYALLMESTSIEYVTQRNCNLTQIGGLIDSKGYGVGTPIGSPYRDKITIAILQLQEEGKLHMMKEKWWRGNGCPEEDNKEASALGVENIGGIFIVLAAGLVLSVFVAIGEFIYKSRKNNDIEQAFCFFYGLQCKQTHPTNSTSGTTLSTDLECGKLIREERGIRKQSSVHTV
# Chain of Glutamate receptor 4 (P48058 whole entry): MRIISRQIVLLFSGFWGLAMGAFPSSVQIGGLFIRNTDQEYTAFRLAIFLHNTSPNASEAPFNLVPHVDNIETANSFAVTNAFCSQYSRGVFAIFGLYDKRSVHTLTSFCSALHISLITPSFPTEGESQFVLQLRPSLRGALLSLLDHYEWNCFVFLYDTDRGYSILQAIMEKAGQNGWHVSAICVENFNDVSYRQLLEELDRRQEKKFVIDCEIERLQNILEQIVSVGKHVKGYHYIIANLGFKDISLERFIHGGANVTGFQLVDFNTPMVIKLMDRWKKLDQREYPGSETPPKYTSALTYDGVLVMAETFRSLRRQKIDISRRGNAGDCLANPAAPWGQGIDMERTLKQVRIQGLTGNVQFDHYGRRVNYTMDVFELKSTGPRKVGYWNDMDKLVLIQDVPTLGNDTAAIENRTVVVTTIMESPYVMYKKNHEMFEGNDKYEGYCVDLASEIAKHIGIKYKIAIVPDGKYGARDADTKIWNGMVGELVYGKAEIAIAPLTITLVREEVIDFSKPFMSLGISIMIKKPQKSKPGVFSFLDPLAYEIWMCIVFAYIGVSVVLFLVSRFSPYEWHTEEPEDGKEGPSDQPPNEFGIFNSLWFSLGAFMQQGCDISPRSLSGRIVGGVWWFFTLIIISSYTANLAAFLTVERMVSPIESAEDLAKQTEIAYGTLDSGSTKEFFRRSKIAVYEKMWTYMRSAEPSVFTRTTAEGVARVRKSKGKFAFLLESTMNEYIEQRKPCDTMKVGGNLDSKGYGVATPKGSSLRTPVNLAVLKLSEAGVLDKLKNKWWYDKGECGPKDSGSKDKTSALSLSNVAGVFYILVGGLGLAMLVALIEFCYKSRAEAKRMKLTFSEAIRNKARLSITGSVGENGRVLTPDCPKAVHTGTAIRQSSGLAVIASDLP
# Chain of Glutamate receptor 1 (P42261 whole entry): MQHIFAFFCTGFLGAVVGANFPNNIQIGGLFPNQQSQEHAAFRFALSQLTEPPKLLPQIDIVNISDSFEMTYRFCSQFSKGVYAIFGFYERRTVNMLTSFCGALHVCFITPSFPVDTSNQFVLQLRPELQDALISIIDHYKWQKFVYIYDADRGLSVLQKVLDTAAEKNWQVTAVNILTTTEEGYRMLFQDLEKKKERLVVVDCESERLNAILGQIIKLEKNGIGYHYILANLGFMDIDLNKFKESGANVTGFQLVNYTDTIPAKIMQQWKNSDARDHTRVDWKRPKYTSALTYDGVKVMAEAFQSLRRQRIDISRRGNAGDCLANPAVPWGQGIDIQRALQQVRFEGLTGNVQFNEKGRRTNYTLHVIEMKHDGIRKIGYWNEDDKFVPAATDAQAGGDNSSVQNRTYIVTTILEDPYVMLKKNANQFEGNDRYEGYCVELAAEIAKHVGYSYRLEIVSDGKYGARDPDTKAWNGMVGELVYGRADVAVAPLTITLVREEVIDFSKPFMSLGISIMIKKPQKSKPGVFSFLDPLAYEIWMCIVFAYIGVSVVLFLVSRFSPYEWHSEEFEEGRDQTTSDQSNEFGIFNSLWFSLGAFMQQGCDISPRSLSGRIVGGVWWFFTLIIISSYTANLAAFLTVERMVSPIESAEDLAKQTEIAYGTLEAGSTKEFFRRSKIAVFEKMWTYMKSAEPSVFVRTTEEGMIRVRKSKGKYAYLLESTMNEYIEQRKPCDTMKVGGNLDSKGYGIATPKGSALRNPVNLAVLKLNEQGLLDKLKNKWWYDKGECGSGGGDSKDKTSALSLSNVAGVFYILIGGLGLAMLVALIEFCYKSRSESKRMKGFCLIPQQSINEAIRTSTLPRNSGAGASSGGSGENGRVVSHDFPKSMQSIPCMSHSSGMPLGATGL
SMILES,pKi [1],pKi [2],pKi [3],pIC50 [4],pEC50 [5],pIC50 [6],pKi [7],pKi [8],pKi [9],pKi [10]
Cn1nnc(-c2o[nH]c(=O)c2C[C@H](N)C(=O)O)n1,4.73,< 3.00,7.09,8.05,,,,,,
Cn1nnnc1-c1onc(O)c1CC(N)C(=O)O (centres undefined),,< 4.00,,4.27,< 3.00,< 4.00,,,,
CCn1nnc(-c2o[nH]c(=O)c2CC(N)C(=O)O)n1 (centres undefined),< 4.00,< 4.00,5.53,6.87,5.46,< 4.00,7.35,7.35,6.84,7.10
CCCn1nnc(-c2onc(O)c2CC(N)C(=O)O)n1 (centres undefined),< 4.00,< 4.00,5.26,5.60,4.49,< 4.00,6.14,5.93,5.29,5.79
Cn1nnc(-c2onc(O)c2CC(N)C(=O)O)n1 (racemic),,< 4.00,,7.57,,,,,,
CC(C)n1nnc(-c2onc(O)c2CC(N)C(=O)O)n1 (centres undefined),< 4.00,< 4.00,4.47,5.21,4.15,< 4.00,5.63,5.43,5.00,5.53
CCn1nnnc1-c1onc(O)c1CC(N)C(=O)O (centres undefined),,< 4.00,,4.57,,< 4.00,,,,
CCCn1nnnc1-c1onc(O)c1CC(N)C(=O)O (centres undefined),,< 4.00,,< 4.00,,< 4.00,,,,
CC(C)n1nnnc1-c1onc(O)c1CC(N)C(=O)O (centres undefined),,< 4.00,,< 4.00,,< 4.00,,,,
